Literature values in patent publication US12715832B2, “Co-crystal of coenzyme QH and nicotinamide, preparation method therefor and use thereof” (COCRYSTAL TECHNOLOGY (JIAXING) CO., LTD, priority 2021, dated 2026).

Conditions: in the air at 25° C. for 28 days

coenzyme QH oxidized: about 6%
SMILES: COc1c(O)c(C)c(C/C=C(\C)CC/C=C(\C)CC/C=C(\C)CC/C=C(\C)CC/C=C(\C)CC/C=C(\C)CC/C=C(\C)CC/C=C(\C)CC/C=C(\C)CCC=C(C)C)c(O)c1OC [stable polymorph of coenzyme QH, coenzyme QH]
